The values below come from patent publication US9616033B2, “Selective metabolic approach to increasing oral bioavailability of phenylephrine and other phenolic bioactivities” (VIRGINIA COMMONWEALTH UNIVERSITY, priority 2011, dated 2017).

Each structure is given as a SMILES string. Entries after “also recorded” stand apart in the source; their conditions may differ. Where two headings read alike, the source gives them in different places.

Series [1] deals with human LS180 intestinal cells. Nature of the series: Inhibition of phenylephrine (PE) metabolism (PE disappearance) in LS180 cells. Type of series: cell-based. The settings on record: for activity at 100 µM: Homo sapiens; for effect on PE disappearance / PE metabolism (in words): inhibitor 100 μM. As to the method:
The inhibitors which can be used in the practice of the invention are wide ranging. […] The LS180 model provides an inexpensive method to imitate the human intestine, with regards to PE metabolism. […] For the LS180 experiments, LS180 cells are seeded at the concentration of 1.9×10^5 cells/ml in 12-well plate. […] After incubation, medium is removed and stored at −80° C. until analysis. The metabolic reactions are quenched by placing 12-well plate on ice and quickly rinsing each well. The cell extraction of metabolites is carried out with 1 ml 2% acetic acid solution in methanol. Cells are scraped and collected in centrifuge tubes. The suspension is mixed for 2-3 min and centrifuged at 18,000 rcf for 5 min. Supernatants (800 μl) are collected. After scraping, each well is washed twice as above. The washing solution is collected with the supernatant and dried under reduced pressure. The residue is re-suspended in 35 μl water and analyzed by HPLC. […] The data are processed with one-way ANOVA followed by Dunnett's post test; * indicates p<0.05.
Phenolic compounds were selected from FDA's “GRAS” list, approved food additives, or dietary supplements. LS180 cells were used as a model to test the effect of these phenolic compounds on the pre-systemic sulfation of PE. The cells were incubated in 0.5 ml medium with PE (50 μM)±inhibitor (100 μM) overnight. Extracellular buffer was collected and cells were extracted with methanol. PE was determined by reversed-phase HPLC with fluorescence detection. The formation of PE-sulfate was analyzed by LC-MS/MS. Results (n=3 per group) were analyzed by one-way ANOVA with Dunnett's post-test (p<0.05; Prism 5).

Series [2] has as its system LS180 cells. Nature of the series: Inhibition of resveratrol metabolism (disappearance) in LS180 cells. It is filed as cell-based, human. Particulars: for activity at 100 µM: Homo sapiens, read-out: Extent of RES Disappearance (as % of control); for inhibition of resveratrol metabolism (in words): 4 hours.
The test system of series [3] is LS180 cells. Nature of the series: Inhibition of 2-methoxyestradiol metabolism (disappearance) in LS180 cells. The settings on record: for activity at 100 µM: Homo sapiens, LS180, 1 h. It is filed as cell-based, human.
Series [4] can be described thus: Biopharmaceutical Classification System (BCS) classification. Particulars: high permeability, high aqueous solubility. From the text:
Interpreting the data published by Hengstmann, the mass balance of total radioactivity excreted into urine following an oral dose was 92% of what was recovered following an intravenous dose, so that phenylephrine would therefore be considered a “high permeability” compound. (Hengstmann and Goronzy, 1982; Amidon et al., 1995) Combining this with its high aqueous solubility, phenylephrine would be classified as a Biopharmaceutical Classification System (BCS) class 1 compound. […] (Amidon et al., 1995; Wu and Benet, 2005) Therefore, to improve the oral bioavailability of PE, a metabolism-targeted approach would be most useful.

For series [5] the following is noted: cited from earlier work.
For series [6] the following is noted: Fenaroli, 2010; cited from earlier work.
The mark [7] stands for this setting: PE 50 μM, inhibitors total 100 μM, LS180 cells, incubation 17.5 hr, read-out: Extent of PE Disappearance (as % of control).
Setting [8] is: PE 50 μM ± inhibitor 100 μM, LS180 cells, overnight, n=3, control=503±127 pmol/hr, read-out: extent of disappearance of PE (mean±SD, as % of control).
Setting [9] is: PE 50 μM, inhibitors total 100 μM (ascorbic acid 1 mM), LS180 cells, incubation 17 hr, read-out: Extent of PE Disappearance (as % of control).
The mark [10] stands for this setting: resveratrol 25 μM, inhibitor 100 μM, LS180 cells, incubation 4 hr.
The mark [11] stands for this setting: PE 50 μM, inhibitors total 100 μM, LS180 cells, incubation 19 hr, read-out: Extent of PE Disappearance (as % of control).
The mark [12] stands for this setting: 2-ME 10 μM, inhibitor 100 μM, incubation time 1 hr (table), read-out: Extent of 2-ME Disappearance (as % of control).
Where [13] appears, read: PE 50 μM, LS180 cells, overnight.
[14] abbreviates: resveratrol 25 μM, inhibitor 100 μM, LS180 cells.
[15] abbreviates: 2-ME 10 μM, inhibitor 100 μM, incubation time 1 hr (table).
Setting [16] is: PE 50 μM, inhibitors total 100 μM (ascorbic acid 1 mM), LS180 cells, incubation 14 hr, read-out: Extent of PE Disappearance (as % of control).

For the molecule `O=c1c(O)c(-c2ccc(O)c(O)c2)oc2cc(O)cc(O)c12` [quercetin], in series [1] (setting [7]), the activity at 100 µM was 48.7%.
Same read-out and setting: under `C[C@@H]1O[C@@H](O[C@H]2[C@H](Oc3cc(O)c4c(c3)O[C@H](c3ccc(O)cc3)CC4=O)O[C@H](CO)[C@@H](O)[C@@H]2O)[C@H](O)[C@H](O)[C@H]1O` [naringin] stands 75.7%.
As for `COc1cc(CCC(C)=O)ccc1O` [zingerone], the activity at 100 µM in series [1] (setting [8]) stood at 52 ± 25%; in series [1] (setting [9]) it was 52.4%; in the series with LS180 cells [2] (setting [10]) it was 83.7%.
Regarding `CC=Cc1ccc(O)c(OC)c1` [isoeugenol], the activity at 100 µM amounted to 74 ± 8% in series [1] (setting [8]) and 73.9% in series [1] (setting [11]).
As to `COc1cc(C(=O)O)ccc1O` [vanillic acid], the results for the activity at 100 µM in the series on LS180 cells [2] (setting [10]) and in the series on LS180 cells [3] (setting [12]) were 103% and 99.1%, respectively.
`C=CCc1ccc(O)c(OC)c1` [eugenol]: the activity at 100 µM in series [1] (LS180, 17.5 h, read-out: Extent of PE Disappearance (as % of control)) came out at 133%; in the series on LS180 cells [2] (LS180, 4 h) it was 38.3%; in the series on LS180 cells [3] (read-out: Extent of 2-ME Disappearance (as % of control), 2-ME 10 μM, inhibitor 100 μM, incubation time 1 hr (table)), 21.2%. Moreover, in series [1] (setting [13]), the “effect on PE disappearance / PE metabolism (in words)” value is recorded as “failed to inhibit PE metabolism alone; also recorded: no significant effect on PE disappearance”. Also, the “inhibition of resveratrol metabolism (in words)” value with LS180 cells [2] (setting [14]) is given as “significant inhibition”. Besides, the “inhibition of 2ME metabolism (in words)” value in the series on LS180 cells [3] (2-ME 10 μM, inhibitor 100 μM) is reported as “Significant inhibition”. Moreover, the “Extent of 2-ME Disappearance (as % of control)” value (shortened to “Extent … (as % of control)”) in the series with LS180 cells [3] (setting [15]) is recorded as 33.9%.
On to `O=C(O)/C=C/c1ccc(O)c(O)c1` [caffeic acid], for which the values for the activity at 100 µM in the series with LS180 cells [2] (setting [10]) and in the series with LS180 cells [3] (setting [12]) were 91.1% and 93.3%, respectively.
`O=C(O)c1cc(O)c(O)c(O)c1` [gallic acid]: in the series on LS180 cells [3] (setting [12]), the activity at 100 µM was 102%.
Regarding `O=C(/C=C/C=C/c1ccc2c(c1)OCO2)N1CCCCC1` [piperine], in the series on LS180 cells [2] (setting [10]), the activity at 100 µM amounted to 26.4%.
In the case of `COC(=O)c1ccc(O)cc1` [methylparaben], the activity at 100 µM in series [1] (setting [9]) was determined as 75.9%; in the series with LS180 cells [2] (setting [10]), 0.4%. Besides, in the series on LS180 cells [2] (setting [14]), the “inhibition of resveratrol metabolism (in words)” value is “greatest extent of inhibition”.
In the case of `COc1cc(/C=C/c2ccc(O)cc2)cc(OC)c1` [pterostilbene], the activity at 100 µM was 71 ± 7% in series [1] (setting [8]) and 70.6% in series [1] (setting [11]).
Regarding `CCOc1cc(C=O)ccc1O` [ethylvanillin], the results for the activity at 100 µM (in series [1] (setting [9]); with LS180 cells [2] (setting [10])) were 76.5% and 8.1%, respectively. For the same molecule, the “inhibition of resveratrol metabolism (in words)” value in the series with LS180 cells [2] (setting [14]) is on record as “greatest extent of inhibition”.
For the molecule `CCCOC(=O)c1cc(O)c(O)c(O)c1` [propyl gallate], the results for the activity at 100 µM (in series [1] (setting [16]); with LS180 cells [2] (setting [10]); in the series with LS180 cells [3] (setting [12])) were 114%, 51.2% and 42.8%, respectively. Further, the “effect on PE disappearance / PE metabolism (in words)” value in series [1] (setting [13]) is listed as “no significant effect on PE disappearance”. Moreover, the “inhibition of resveratrol metabolism (in words)” value with LS180 cells [2] (setting [14]) is “significant inhibition”. In addition, the “inhibition of 2ME metabolism (in words)” value in the series with LS180 cells [3] (2-ME 10 μM, inhibitor 100 μM) is listed as “Significant inhibition”. In the series on LS180 cells [3] (setting [15]), the “Extent … (as % of control)” value was found to be 50.4%.
On to `Oc1ccc(C=Cc2cc(O)cc(O)c2)cc1` [resveratrol], for which the activity at 100 µM in series [1] (setting [8]) turned out to be 14 ± 48%; in series [1] (setting [7]) it was 14.2%.
Take `CNC[C@H](O)c1cccc(O)c1` [phenylephrine]: in series [4], the “Biopharmaceutical Classification System (BCS) class” value is “class 1”. Besides, the “total radioactivity excreted into urine following an oral dose, relative to intravenous dose” value in series [5] (mass balance, oral vs intravenous, Hengstmann data) is 92%. In addition, in series [5] (oral), the oral bioavailability is recorded as less than 38%.
Consider `CCCOC(=O)c1ccc(O)cc1` [propylparaben], for which the activity at 100 µM in series [1] (setting [16]) was determined as 53.8%; with LS180 cells [2] (setting [10]), 57.8%; with LS180 cells [3] (setting [12]), 51.7%. Besides, the “inhibition of resveratrol metabolism (in words)” value with LS180 cells [2] (setting [14]) is reported as “significant inhibition”. The “inhibition of 2ME metabolism (in words)” value in the series on LS180 cells [3] (2-ME 10 μM, inhibitor 100 μM) is listed as “Significant inhibition”. The “Extent … (as % of control)” value with LS180 cells [3] (setting [15]) was found to be 57.7%.
For `COc1cc(/C=C/C(=O)CC(=O)/C=C/c2ccc(O)c(OC)c2)ccc1O` [curcumin], the activity at 100 µM is 24 ± 24% in series [1] (setting [8]) and 24.5% in series [1] (setting [9]).
Turning to `O=C(O)C=Cc1ccccc1` [cinnamic acid], the activity at 100 µM with LS180 cells [2] (setting [10]) is 16.3%. Also, the “inhibition of resveratrol metabolism (in words)” value with LS180 cells [2] (setting [14]) is listed as “significant inhibition”.
In the case of `COc1cc(/C=C/C(=O)O)ccc1O` [ferulic acid], the activity at 100 µM with LS180 cells [2] (setting [10]) was found to be 100%; with LS180 cells [3] (setting [12]), 102%.
As to `O=CC=Cc1ccccc1` [cinnamaldehyde], the “Extent … (as % of control)” value in the series with LS180 cells [3] (setting [15]) is listed as 93.9%. Besides, in the series with LS180 cells [3] (setting [12]), the activity at 100 µM came out at 87.6%.
Consider `COc1cc(C=O)ccc1O` [vanillin], for which the results for the activity at 100 µM (in series [1] (setting [16]); with LS180 cells [2] (setting [10]); in the series on LS180 cells [3] (setting [12])) were 90.2%, 44.8% and 51.2%, respectively. Also, in series [1] (setting [13]), the “effect on PE disappearance / PE metabolism (in words)” value is listed as “failed to inhibit PE metabolism alone; also recorded: no significant effect on PE disappearance”. Also, in the series with LS180 cells [2] (setting [14]), the “inhibition of resveratrol metabolism (in words)” value is recorded as “significant inhibition”. For the same molecule, the “inhibition of 2ME metabolism (in words)” value with LS180 cells [3] (2-ME 10 μM, inhibitor 100 μM) is “Significant inhibition”. Moreover, the “Extent … (as % of control)” value in the series on LS180 cells [3] (setting [15]) is on record as 39.4%. For the same molecule, the acceptable daily intake in series [6] is reported as 10 mg/kg/day.
With `COc1cc(/C=C/C(=O)O)cc(OC)c1O` [sinapic acid], the activity at 100 µM was found to be 86.1% in the series with LS180 cells [2] (setting [10]) and 88.1% in the series with LS180 cells [3] (setting [12]).
